Measured values: patent publication US11554171B2, “Compounds and methods for the targeted degradation of bromodomain-containing proteins” (Arvinas Operations, Inc., priority 2015, dated 2023)

Tested on: c-myc in 22RV-1 cells
Assay: Human c-myc ELISA assay
Assay type: cell-based
Settings: Homo sapiens; for Emax: 22Rv1, 18 h, read-out: Degradation of BRD4: Maximum inhibition (%) c-Myc ELISA in 22RV1 cells; for DC50: 22Rv1, read-out: Degradation of BRD4: DC50 (uM) c-Myc ELISA in 22RV1 cells
Summary of the method: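 c-myc levels measured by ELISA in RIPA lysates of 22RV-1 cells, calibrated with a 333-0 pg/ml standard curve. Lysates came from cells exposed for 18 h to an 8-point, 1:3 dose series starting at 300 nM or 1 μM final in 0.1% DMSO. Suppression potency given as DC50.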

Cc1sc2c(c1C)C(c1ccc(Cl)cc1)=N[C@@H](CC(=O)NCCOCCCOCC(=O)N[C@H](C(=O)N1C[C@H](O)C[C@H]1C(=O)NCc1ccc(Cl)cc1)C(C)(C)C)c1nnc(C)n1-2 [Example 76]
Emax: 58.6% | DC50: 0.1 to 1 µM

Cc1sc2c(c1C)C(c1ccc(Cl)cc1)=N[C@@H](CC(=O)N[C@H]1C[C@@H](Oc3cccc(-c4cnn([C@@H](C(=O)N5C[C@H](O)C[C@H]5C(=O)N[C@@H](C)c5ccc(-n6ccnc6C)cc5)C(C)C)c4)c3)C1)c1nnc(C)n1-2 [Example 298]
Emax: 25.5% | DC50: > 1 µM

Cc1ncsc1-c1ccc(CNC(=O)[C@@H]2C[C@@H](O)CN2C(=O)C(c2cc(OCCCCCNC(=O)C[C@@H]3N=C(c4ccc(Cl)cc4)c4c(sc(C)c4C)-n4c(C)nnc43)no2)C(C)C)cc1 (stereo partly drawn) [Example 90]
Emax: 100% | DC50: < 0.01 µM

Cc1ncsc1-c1ccc([C@H](C)NC(=O)[C@@H]2C[C@@H](O)CN2C(=O)[C@@H](C(C)C)n2cc(-c3cnc(O[C@H]4C[C@H](NC(=O)C[C@@H]5N=C(c6ccc(Cl)cc6)c6c(sc(C)c6C)-n6c(C)nnc65)C4)cn3)cn2)cc1 [Example 283]
Emax: 89.5% | DC50: 0.01 to 0.1 µM

Cc1ncoc1-c1ccc(CNC(=O)[C@@H]2C[C@@H](O)CN2C(=O)[C@H](C(C)C)n2cc(-c3ccnc(O[C@H]4C[C@@H](NC(=O)C[C@@H]5N=C(c6ccc(Cl)cc6)c6c(sc(C)c6C)-n6c(C)nnc65)C4)c3)cn2)cc1 [Example 295]
Emax: 93.8% | DC50: 0.1 to 1 µM

Cc1ncsc1-c1ccc([C@H](C)NC(=O)[C@@H]2C[C@@H](O)CN2C(=O)[C@@H](NC(=O)CCc2cc(F)cc(O[C@H]3C[C@H](NC(=O)C[C@@H]4N=C(c5ccc(Cl)cc5)c5c(sc(C)c5C)-n5c(C)nnc54)C3)c2)C(C)(C)C)cc1 [Example 173, (2S,4R)-1-[(2S)-2-(3-{3-fluoro-5-[(1,3-trans)-3-{2-[(9S)-7-(4-chlorophenyl)-4,5,13-trimethyl-3-thia-1,8,11,12-tetraazatricyclo[8.3.0.0^2,^6]trideca-2(6),4,7,10,12-pentaen-9-yl]acetamido}cyclobutoxy]phenyl}propanamido)-3,3-dimethylbutanoyl]-4-hydroxy-N-[(1S)-1-[4-(4-methyl-1,3-thiazol-5-yl)phenyl]ethyl]pyrrolidine-2-carboxamide]
Emax: 98% | DC50: < 0.01 µM

Cc1ncsc1-c1ccc(CNC(=O)[C@@H]2C[C@@H](O)CN2C(=O)[C@H](c2cnn(CCCOCCNC(=O)C[C@@H]3N=C(c4ccc(Cl)cc4)c4c(sc(C)c4C)-n4c(C)nnc43)c2)C(C)C)cc1 [Example 145]
Emax: 15.9% | DC50: > 1 µM

Cc1ncsc1-c1ccc(CNC(=O)[C@@H]2C[C@H](O)CN2C(=O)[C@@H](NC(=O)COCCCOCCCOc2ccc(NC(=O)C[C@@H]3N=C(c4ccc(Cl)cc4)c4c(sc(C)c4C)-n4c(C)nnc43)cc2)C(C)(C)C)cc1 [Example 18]
Emax: 39% | DC50: > 1 µM

Cc1ncsc1-c1ccc(CNC(=O)[C@@H]2C[C@@H](O)CN2C(=O)[C@@H](NC(=O)COCCCOCCCOc2ccc(NC(=O)C[C@@H]3N=C(c4ccc(Cl)cc4)c4c(sc(C)c4C)-n4c(C)nnc43)nc2)C(C)(C)C)cc1 [Example 28]
Emax: 100% | DC50: 0.01 to 0.1 µM

Cc1ncsc1-c1ccc(CNC(=O)[C@@H]2C[C@@H](O)CN2C(=O)[C@H](C(C)C)n2cc(-c3cccc(O[C@H](C)CNC(=O)C[C@@H]4N=C(c5ccc(Cl)cc5)c5c(sc(C)c5C)-n5c(C)nnc54)c3)cn2)cc1 [Example 232]
Emax: 83% | DC50: 0.01 to 0.1 µM

CNC[C@H](NC(=O)[C@@H]1C[C@@H](O)CN1C(=O)[C@@H](NC(=O)COCCCOCCNC(=O)C[C@@H]1N=C(c2ccc(Cl)cc2)c2c(sc(C)c2C)-n2c(C)nnc21)C(C)(C)C)c1ccc(-c2scnc2C)cc1 [Example 110]
Emax: 7.14% | DC50: > 1 µM

Cc1ncsc1-c1ccc([C@H](C)NC(=O)[C@H]2C[C@H](O)CN2C(=O)[C@@H](NC(=O)c2cc3cc(O[C@H]4C[C@@H](NC(=O)C[C@@H]5N=C(c6ccc(Cl)cc6)c6c(sc(C)c6C)-n6c(C)nnc65)C4)ccc3o2)C(C)(C)C)cc1 [Example 332]
Emax: 61% | DC50: 0.1 to 1 µM
